The target of this assay is T1, KMO mouse enzyme (Mus musculus, UniProt Q91WN4).
T1 construct: KMO enzyme prepared at Evotec from mouse liver (4-6 weeks old) via mitochondria isolation; from tissue; host or cells: mouse liver (4-6 weeks old), isolated mitochondria, prepared at Evotec
As to the kind of experiment: KMO mouse enzyme assay: L-Kynurenine hydroxylation to 3-Hydroxy-Kynurenine by LC/MS (protocols substantially similar to Example 33). It counts as biochemical. As to conditions: compound at 30 µM; KMO enzyme from mouse liver mitochondria; 100 μM L-Kynurenine; 40 min at RT. The procedure: A method of monitoring L-Kynurenine (KYN) hydroxylation to form 3-Hydroxy-Kynurenine (3OH-KYN) by LC/MS is described. Product is quantified by multiple reaction monitoring (MRM method). […]
Using the assay protocols substantially similar to those of Example 33, the following compounds were tested.

T1 sequence (Q91WN4 whole entry): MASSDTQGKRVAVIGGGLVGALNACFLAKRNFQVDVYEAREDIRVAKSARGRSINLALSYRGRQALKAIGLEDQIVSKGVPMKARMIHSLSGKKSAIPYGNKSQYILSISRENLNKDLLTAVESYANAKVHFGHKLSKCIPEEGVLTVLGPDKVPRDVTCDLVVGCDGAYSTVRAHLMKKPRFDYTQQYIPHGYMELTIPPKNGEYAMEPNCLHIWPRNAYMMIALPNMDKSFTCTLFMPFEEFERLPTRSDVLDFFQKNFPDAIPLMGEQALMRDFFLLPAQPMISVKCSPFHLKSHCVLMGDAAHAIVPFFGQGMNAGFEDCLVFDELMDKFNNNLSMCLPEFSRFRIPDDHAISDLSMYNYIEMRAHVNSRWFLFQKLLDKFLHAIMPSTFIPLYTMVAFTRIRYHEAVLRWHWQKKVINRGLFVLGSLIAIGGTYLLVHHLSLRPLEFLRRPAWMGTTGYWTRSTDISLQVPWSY

Consider `O=C(OCCO)[C@H]1C[C@@H]1C(=O)c1ccc(Cl)c(Cl)c1` [2-Hydroxyethyl (1S,2S)-2-[(3,4-dichlorophenyl)carbonyl]cyclopropane-1-carboxylate], for which the inhibition (in general, the relative decrease from the control value, in per cent) at 30 µM came to 102%.
Next, `O=C(O)[C@H]1C[C@@H]1C(=O)c1cc(Cl)cc(Cl)c1` [(1S,2S)-2-[(3,5-Dichlorophenyl)carbonyl]cyclopropane-1-carboxylic acid]: 103%; `C[C@@H]1[C@@H](C(=O)O)[C@@H]1C(=O)c1ccc(Cl)c(Cl)c1` (single isomer, unassigned): 96.7%; `O=C(O)[C@H]1C[C@@H]1C(=O)c1ccc(Cl)c(F)c1` [(1S,2S)-2-[(4-Chloro-3-fluorophenyl)carbonyl]cyclopropane-1-carboxylic acid]: 103%.
